Assay results from ChEMBL document CHEMBL1127921, “Synthesis and study of a non macrocyclic FK506 derivative” (Bioorg Med Chem Lett, 1994).

Molecular target: Peptidyl-prolyl cis-trans isomerase FKBP1A (Homo sapiens, UniProt P62942)
Test: Binding affinity towards immunophilin cytosolic protein FK506 binding protein 12 was determined

Sequence of Peptidyl-prolyl cis-trans isomerase FKBP1A (P62942 whole entry): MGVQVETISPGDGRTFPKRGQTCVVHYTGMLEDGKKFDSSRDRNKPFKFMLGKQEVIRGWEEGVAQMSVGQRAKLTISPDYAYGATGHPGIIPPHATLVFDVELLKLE

Row | SMILES | Ki
1 | CCC[C@H](/C=C(\C)C[C@H](C)C[C@H](OC)[C@H]1O[C@@](O)(C(=O)C(=O)N2CCCC[C@H]2C(=O)O[C@H](/C(C)=C/[C@@H]2CC[C@@H](O)[C@H](OC)C2)C(C)C)[C@H](C)C[C@@H]1OC)C(C)=O | 400 nM
2 | C=CCC(CC=C)C(=O)C[C@H](O)[C@@H](C)[C@H](OC(=O)[C@@H]1CCCCN1C(=O)C(=O)[C@]1(O)O[C@H]([C@H](/C=C\C)OC)CC[C@H]1C)[C@H](C)C[C@@H]1CC[C@@H](O)[C@H](OC)C1 | 207 nM
